# Columns and labels:
# [1] = test system: Raw264.7 cells; assay: NO production inhibition in lipopolysaccharide-treated Raw264.7 cells (GRIESS reagent); type: cell-based
# Procedure: In order to confirm the anti-inflammatory effect of the citrus peel extracts, NO production inhibition rate was measured after the extracts were untreated, steamed for 30 minutes, or steamed for 8 hours. In order to culture Raw264.7 cells, a mixture of DMEM (Dulbecco's Modified Eagle's Medium) and FBS (Fetal Bovine Serum) was used as a basic medium, and the Raw264.7 cells were seeded into a 24-well plate at a concentration of 1 to 2×10^5 cells/mL and cultured for 24 hours. The medium was removed and the cells were starvated in serum-free medium for 12 hours, and thereafter, the DMSO lysate of each extract was treated so that the concentration was 200 ppm, and after 30 minutes, lipopolysaccharide was added at a concentration of 500 ng/ml and cultured for 18 hours. L-NMMA, a positive control, was treated at 20 ppm. After completion of the culture, the supernatant was taken and transferred to a 96-well plate, reacted at room temperature by adding the GRIESS reagent, and the absorbance at 540 nm was measured using an ELISA reader. The amount of NO inhibited compared to the control group was calculated as NO production inhibition rate (%), and the average value was calculated after the experiment was performed three times.
# In order to identify the cause of the change in anti-inflammatory efficacy among the steamed citrus peel extract components, the NO production inhibition rates of hesperidin, a flavonoid glycone, and hesperetin, a a flavonoid aglycone, were compared (Table 13)
# [2] = test system: human dermal fibroblasts; assay: Collagen synthesis promotion in human dermal fibroblasts (procollagen 1α1 ELISA); type: cell-based
# Procedure: In order to confirm the collagen synthesis promoting effect of the citrus peel extracts, the amount of additional collagen production was measured after the extracts were untreated, steamed for 30 minutes, or steamed for 8 hours. In order to culture human dermal fibroblasts, a mixture of DMEM and FBS was used as a basic medium, and the skin fibroblasts were seeded into a 48-well plate at a concentration of 2 to 5×10^4 cells/mL and cultured for 24 hours. The medium was removed, and the DMSO lysate of each extract was treated in serum-free medium so that the concentration was 100 ppm, and cultured for 24 hours. A positive control that promotes collagen synthesis was treated with TGF-β to a concentration of 5 ppb. The cell culture solution was taken and the synthesized collagen was measured using the Human procollagen 1α1 duoset ELISA Kit (R&D Systems) and ELISA reader. A calibration curve was prepared by measuring the isolated and purified collagen at concentrations of 0.25, 0.5, 1, 2, 4, and 8 ng/mL, and based on the results, the amount of collagen (Type I collagen) produced in the DMSO lysate of the citrus peel extracts was calculated. The amount of collagen produced compared to the control group (DMSO) was calculated as collagen production rate (%), and the average value was calculated after the experiment was performed three times (Table 14).
# In order to identify the cause of the change in collagen synthesis promoting efficacy among the steamed citrus peel extract components, the amount of additional collagen production of hesperidin, a flavonoid glycone, and hesperetin, a flavonoid aglycone, was compared (Table 15).
compound,measurement,setting,value
"COc1ccc([C@@H]2CC(=O)c3c(O)cc(O)cc3O2)cc1O [Hesperetin, hesperetin]",inhibition at 0.1 ppm,"[1]; Mus musculus, RAW264.7, 0.1 ppm, read-out: NO Production Inhibition Rate",-3%
same,inhibition at 1 ppm,"[1]; Mus musculus, RAW264.7, 1 ppm, read-out: NO Production Inhibition Rate",2.6%
same,inhibition at 10 ppm,"[1]; Mus musculus, RAW264.7, 10 ppm, read-out: NO Production Inhibition Rate",8.1%
same,inhibition at 20 ppm,"[1]; Mus musculus, RAW264.7, 20 ppm, read-out: NO Production Inhibition Rate",35.6%
same,Additional Collagen Production Rate,[2]; 0.1 ppm,17.0%
same,Additional Collagen Production Rate,[2]; 1 ppm,16.8%
"COc1ccc([C@@H]2CC(=O)c3c(O)cc(O[C@@H]4O[C@H](CO[C@@H]5O[C@@H](C)[C@H](O)[C@@H](O)[C@H]5O)[C@@H](O)[C@H](O)[C@H]4O)cc3O2)cc1O [Hesperidin, hesperidin]",NO Production Inhibition Rate,[1]; 0.1 ppm,−5.5%
same,NO Production Inhibition Rate,[1]; 1 ppm,0.6%
same,NO Production Inhibition Rate,[1]; 10 ppm,1.8%
same,NO Production Inhibition Rate,[1]; 20 ppm,2.4%
same,Additional Collagen Production Rate,[2]; 0.1 ppm,−0.2%
same,Additional Collagen Production Rate,[2]; 1 ppm,0.2%
CNC(=N)NCCC[C@H](N)C(=O)O [L-NMMA],NO Production Inhibition Rate,"[1]; positive control, 20 ppm, Table 12",55.1%
same,NO Production Inhibition Rate,"[1]; positive control, Table 13",51.3%
TGF-β: positive control that promotes collagen synthesis,Additional Collagen Production Rate,"[2]; positive control, 5 ppb, Table 14",25.2%
same,Additional Collagen Production Rate,"[2]; positive control, Table 15",23.7%

# — patent US20230255877A1, “COMPOSITION FOR IMPROVING SKIN COMPRISING STEAMED CITRUS PEEL EXTRACT AS ACTIVE INGREDIENT” (LG HOUSEHOLD & HEALTH CARE LTD., priority 2022, published 2023)
